For two molecules, IC50 results are on record in patent US10538497B2, “Compounds as indoleamine 2,3-dioxygenase inhibitors” (Merck Sharp & Dohme Corp., priority 2015, dated 2020).

Test [1] has as its target T1, IDO1 (Homo sapiens (Human), UniProt P14902). Description: IDO1 Cellular Assay in Frozen HEK293 Cells Transiently Transfected with Human IDO1. The test is classed as cell-based. Conditions: HEK293 cells transiently transfected with human IDO1; read-out: IDO1 HEK293 Cell Assay, IC50.
The target in test [2] is T1, IDO1. Description: IDO1 Human Whole Blood Assay. Format: cell-based. Conditions: LPS and IFNγ 100 ng/mL, kynurenine by LC/MS/MS.

Molecules are shown by their SMILES.

T1 sequence (P14902 whole entry): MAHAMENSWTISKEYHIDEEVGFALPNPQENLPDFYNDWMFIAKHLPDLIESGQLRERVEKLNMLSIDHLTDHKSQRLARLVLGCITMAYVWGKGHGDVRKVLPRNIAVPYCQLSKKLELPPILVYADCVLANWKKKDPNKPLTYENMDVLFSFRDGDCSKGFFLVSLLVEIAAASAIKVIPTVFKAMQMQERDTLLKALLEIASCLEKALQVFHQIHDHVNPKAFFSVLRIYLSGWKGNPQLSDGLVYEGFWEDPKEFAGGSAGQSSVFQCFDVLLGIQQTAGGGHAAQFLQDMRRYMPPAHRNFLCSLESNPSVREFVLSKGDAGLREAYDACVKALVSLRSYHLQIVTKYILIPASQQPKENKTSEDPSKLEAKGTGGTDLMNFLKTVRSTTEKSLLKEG

As usually defined, the IC50 is the concentration that inhibits the measured activity by half. In the case of `O=C(CSc1nonc1/C(=N/O)Nc1ccc(F)c(Br)c1)NC[C@@H](O)CO` [Example 42, (R)-2-((4-(N-(3-bromo-4-fluorophenyl)-N′-hydroxycarbamimidoyl)-1,2,5-oxadiazol-3-yl)thio)-N-(2,3-dihydroxypropyl)acetamide], the IC50 is 59.6 nM in test [1] and 519 nM in test [2].

For the molecule `NC(=O)NCCSc1nonc1/C(=N/O)Nc1ccc(F)c(Br)c1` [Example 46, N-(3-Bromo-4-fluorophenyl)-N′-hydroxy-4-((2-ureidoethyl)thio)-1,2,5-oxadiazole-3-carboximidamide], the 50% inhibitory concentration (IC50) in test [1] came to 16.9 nM; in test [2], 239 nM.
